Test results from ChEMBL document CHEMBL1146467, “A new phloroglucinol derivative from the brown alga Eisenia bicyclis: potential for the effective treatment of diabetic complications” (J Nat Prod, 2004).

How the values were obtained:
[1] = Inhibition of advanced glycation end product formation assessed as CML level at 1 mM after 7 days in 0.1 M phosphate buffer at pH 7.4 by ELISA relative to control; type: physicochemical; conditions: pH 7.4, 168 h, 1000 µM
[2] = Inhibition of alpha-amylase at 1 mM after 15 mins by dinitrosalicylic acid method relative to control

SMILES	inhibition (INH) [1]	inhibition [2]
Oc1cc(O)cc(Oc2c(O)cc(O)c3c2Oc2c(O)cc(O)cc2O3)c1 [ECKOL]	96.2%	87.5%
Oc1cc(O)cc(Oc2c(O)cc(O)c3c2Oc2c(O)cc(Oc4c(O)cc(Oc5c(O)cc(O)c6c5Oc5c(O)cc(O)cc5O6)cc4O)cc2O3)c1 [DIECKOL]	86.7%	97.5%
N=C(N)NN [PIMAGEDINE]	76%	–
